Data taken from patent publication US20230016424A1, “HYBRID AMIDE DERIVATIVES OF AMPHOTERICIN B” (The Board of Trustees of the University of Illinois, priority 2019, published 2023).
Converted amounts (≈) assume the structure as drawn.

Columns and labels:
A. fumigatus 1163 = assay: MIC; assay type: cell-based
C. albicans SN250 = assay: MIC; assay type: cell-based, Candida albicans
C. tropicalis = assay: MIC; assay type: cell-based
[1] = system: C. albicans SN250, C. albicans, C. krusei, C. glabrata, C. tropicalis, A. fumigatus 91, 1163, 1100; assay: Average MIC over the tested strains; assay type: cell-based; set-up: Avg. MIC of AmB amide: unit not given here; conditions: for Avg. MIC of AmB amide: value of the corresponding C16 amide of AmB, not of the C2’epi compound
A. fumigatus 1100 = assay: MIC; assay type: cell-based
C. glabrata = assay: MIC; assay type: cell-based
C. krusei = assay: MIC; assay type: cell-based
C. albicans = assay: MIC; assay type: cell-based
A. fumigatus 91 = assay: MIC; assay type: cell-based
[2] = Tables 8 and 9, average over the 8 listed strains
[3] = Table 12, C16 amides of C2'epiAmB
[4] = Table 13, C16 amides of C2’epiAmB

| MIC A. fumigatus 91 (A. fumigatus 91) [µM] | SMILES | MIC A. fumigatus 1163 (A. fumigatus 1163) [µM] | MIC C. albicans SN250 (C. albicans SN250) [µM] | MIC C. tropicalis (C. tropicalis) [µM] | Average MIC [1, 2] [µM] | MIC A. fumigatus 1100 (A. fumigatus 1100) [µM] | MIC C. glabrata (C. glabrata) [µM] | MIC C. krusei (C. krusei) [µM] | MIC C. albicans (C. albicans) [µM] | Average MIC [1, 3] [µM] | Avg. MIC of AmB amide [1] | Average MIC [1, 4] [µM] |
| --- | --- | --- | --- | --- | --- | --- | --- | --- | --- | --- | --- | --- |
|  | CC1C=CC=CC=CC=CC=CC=CC=CC(OC2OC(C)C(O)C(N)C2O)CC2OC(O)(CC(O)CC(O)C(O)CCC(O)CC(O)CC(=O)OC(C)C(C)C1O)CC(O)C2C(=O)NC1CCCCC1 (stereo not drawn) [AR6] | 1000 (≈ 1010 µg/mL) | 500 (≈ 503 µg/mL) | 500 (≈ 503 µg/mL) | 891 | 1500 (≈ 1510 µg/mL) | 750 (≈ 754 µg/mL) |  |  |  |  |  |
|  | CC1C=CC=CC=CC=CC=CC=CC=CC(OC2OC(C)C(O)C(N)C2O)CC2OC(O)(CC(O)CC(O)C(O)CCC(O)CC(O)CC(=O)OC(C)C(C)C1O)CC(O)C2C(=O)NC1CCCCCC1 (stereo not drawn) [AR7] |  |  |  | 1469 |  | 2000 (≈ 2040 µg/mL) | 1000 (≈ 1020 µg/mL) |  |  |  |  |
|  | CC1C=CC=CC=CC=CC=CC=CC=CC(OC2OC(C)C(O)C(N)C2O)CC2OC(O)(CC(O)CC(O)C(O)CCC(O)CC(O)CC(=O)OC(C)C(C)C1O)CC(O)C2C(=O)NC1CCCCCCCCCCC1 (stereo not drawn) [AR12] |  |  | 3000 (≈ 3270 µg/mL) | 5000 | 8000 (≈ 8720 µg/mL) |  | 8000 (≈ 8720 µg/mL) | 2000 (≈ 2180 µg/mL) |  |  |  |
|  | CC1C=CC=CC=CC=CC=CC=CC=CC(OC2OC(C)C(O)C(N)C2O)CC2OC(O)(CC(O)CC(O)C(O)CCC(O)CC(O)CC(=O)OC(C)C(C)C1O)CC(O)C2C(=O)NC1CCCCCCCCC1 (stereo not drawn) [AR-10] |  | 1000 (≈ 1060 µg/mL) |  | 2250 |  | 2000 (≈ 2120 µg/mL) | 1000 (≈ 1060 µg/mL) |  |  |  |  |
|  | CC1C=CC=CC=CC=CC=CC=CC=CC(OC2OC(C)C(O)C(N)C2O)CC2OC(O)(CC(O)CC(O)C(O)CCC(O)CC(O)CC(=O)OC(C)C(C)C1O)CC(O)C2C(=O)NCCC#N (stereo not drawn) [BO] | 1500 (≈ 1460 µg/mL) |  | 500 (≈ 488 µg/mL) |  |  |  |  |  | 1.188 | 0.42 |  |
| 4000 (≈ 3950 µg/mL) | CC1C=CC=CC=CC=CC=CC=CC=CC(OC2OC(C)C(O)C(N)C2O)CC2OC(O)(CC(O)CC(O)C(O)CCC(O)CC(O)CC(=O)OC(C)C(C)C1O)CC(O)C2C(=O)NCC(F)F (stereo not drawn) [BQ] |  |  |  |  |  |  |  |  | 1.625 | 0.30 | 1625 |
|  | CC1C=CC=CC=CC=CC=CC=CC=CC(OC2OC(C)C(O)C(N)C2O)CC2OC(O)(CC(O)CC(O)C(O)CCC(O)CC(O)CC(=O)OC(C)C(C)C1O)CC(O)C2C(=O)NC1COCC1O (stereo not drawn) [BR] |  |  | 500 (≈ 505 µg/mL) |  |  |  |  |  | 1.688 | 0.38 | 1250 |
